pEC50, pIC50: −log10 of the molar value.
Key:
[1] = target: Lysophosphatidic acid receptor 5 (Homo sapiens, UniProt Q9H1C0); experiment: Antagonist activity at human LPA5 receptor overexpressed in CHO cells pre-incubated for 1 hr followed by LPA addition by fluorescence based FLIPR calcium assay; type: functional, cell-based
[2] = Drug metabolism in Beagle dog hepatocyte assessed as (R)-1-(2,5-Difluoropyridin-3-yl)ethyl[4-(5-Aminopyridin-2-yl)-1-methyl-1H-1,2,3-triazol-5-yl]carbamate Hydrochloride metabolite formation at 1 uM by LC/MS/MS analysis; type: ADME, Canis lupus familiaris; conditions: hepatocytes
[3] = Plasma protein binding in female CD-1 mouse assessed as unbound fraction at 2 uM incubated for 24 hrs by LC-MS analysis; type: ADME, cell-free
[4] = Unbound drug concentration in CD-1 mouse brain at 2 uM incubated for 5 hrs by LC-MS analysis; type: ADME, tissue-based
[5] = Half-life in Beagle dog at 5 mg/kg, po measured after 24 hrs by LC/MS/MS analysis; type: ADME, organism-based, Canis lupus familiaris; conditions: in vivo
[6] = Metabolic stability in cynomolgus monkey liver microsomes assessed as intrinsic clearance at 1 uM by LC/MS/MS analysis; type: ADME, Macaca fascicularis, Microsome; conditions: read-out: CLH (converted)
Cytochrome P450 2B6 = target: T1, Cytochrome P450 2B6 (Homo sapiens, UniProt P20813); experiment: Inhibition of CYP2B6 (unknown origin) using midazolam as substrate; type: ADME
T1 sequence (P20813 whole entry): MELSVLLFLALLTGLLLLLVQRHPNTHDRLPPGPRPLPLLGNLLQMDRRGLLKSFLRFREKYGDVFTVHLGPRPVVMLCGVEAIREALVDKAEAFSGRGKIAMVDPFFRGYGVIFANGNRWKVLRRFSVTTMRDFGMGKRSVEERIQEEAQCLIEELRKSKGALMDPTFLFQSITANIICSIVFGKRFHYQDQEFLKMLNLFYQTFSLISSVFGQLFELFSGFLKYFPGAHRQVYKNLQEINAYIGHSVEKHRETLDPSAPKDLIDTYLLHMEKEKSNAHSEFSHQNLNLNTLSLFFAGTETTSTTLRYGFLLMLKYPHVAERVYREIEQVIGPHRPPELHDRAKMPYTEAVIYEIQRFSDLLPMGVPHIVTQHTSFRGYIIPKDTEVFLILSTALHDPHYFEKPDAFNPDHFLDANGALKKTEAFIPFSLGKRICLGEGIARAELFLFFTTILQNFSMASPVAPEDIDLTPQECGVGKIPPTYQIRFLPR

[7] = target: T2, Lysophosphatidic acid receptor 1 (Homo sapiens, UniProt Q92633); experiment: Antagonist activity at LPA1 receptor in serum starved human Primary lung fibroblast cells pre-incubated for 1 hr followed by LPA stimulation and measured after 30 min by MRTF-A assay; type: cell-based
[8] = Oral bioavailability in Beagle dog at 5 mg/kg measured after 24 hrs by LC/MS/MS analysis; type: ADME, organism-based, Canis lupus familiaris; conditions: in vivo
[9] = target: T2, Lysophosphatidic acid receptor 1; experiment: Antagonist activity at human wild-type LPA1 receptor expressed in HEK293 cells assessed as internalization incubated for 30 mins by BRET assay; type: cell-based
Cytochrome P450 3A4 = Cytochrome P450 3A4 (Homo sapiens, UniProt P08684); experiment: Inhibition of CYP3A4 (unknown origin) using testosterone as substrate; type: ADME
[10] = target: Voltage-gated inwardly rectifying potassium channel KCNH2 (Homo sapiens, UniProt Q12809); experiment: Inhibition of human ERG; type: toxicity
Voltage-gated inwardly rectifying potassium channel KCNH2, sequence (Q12809 whole entry): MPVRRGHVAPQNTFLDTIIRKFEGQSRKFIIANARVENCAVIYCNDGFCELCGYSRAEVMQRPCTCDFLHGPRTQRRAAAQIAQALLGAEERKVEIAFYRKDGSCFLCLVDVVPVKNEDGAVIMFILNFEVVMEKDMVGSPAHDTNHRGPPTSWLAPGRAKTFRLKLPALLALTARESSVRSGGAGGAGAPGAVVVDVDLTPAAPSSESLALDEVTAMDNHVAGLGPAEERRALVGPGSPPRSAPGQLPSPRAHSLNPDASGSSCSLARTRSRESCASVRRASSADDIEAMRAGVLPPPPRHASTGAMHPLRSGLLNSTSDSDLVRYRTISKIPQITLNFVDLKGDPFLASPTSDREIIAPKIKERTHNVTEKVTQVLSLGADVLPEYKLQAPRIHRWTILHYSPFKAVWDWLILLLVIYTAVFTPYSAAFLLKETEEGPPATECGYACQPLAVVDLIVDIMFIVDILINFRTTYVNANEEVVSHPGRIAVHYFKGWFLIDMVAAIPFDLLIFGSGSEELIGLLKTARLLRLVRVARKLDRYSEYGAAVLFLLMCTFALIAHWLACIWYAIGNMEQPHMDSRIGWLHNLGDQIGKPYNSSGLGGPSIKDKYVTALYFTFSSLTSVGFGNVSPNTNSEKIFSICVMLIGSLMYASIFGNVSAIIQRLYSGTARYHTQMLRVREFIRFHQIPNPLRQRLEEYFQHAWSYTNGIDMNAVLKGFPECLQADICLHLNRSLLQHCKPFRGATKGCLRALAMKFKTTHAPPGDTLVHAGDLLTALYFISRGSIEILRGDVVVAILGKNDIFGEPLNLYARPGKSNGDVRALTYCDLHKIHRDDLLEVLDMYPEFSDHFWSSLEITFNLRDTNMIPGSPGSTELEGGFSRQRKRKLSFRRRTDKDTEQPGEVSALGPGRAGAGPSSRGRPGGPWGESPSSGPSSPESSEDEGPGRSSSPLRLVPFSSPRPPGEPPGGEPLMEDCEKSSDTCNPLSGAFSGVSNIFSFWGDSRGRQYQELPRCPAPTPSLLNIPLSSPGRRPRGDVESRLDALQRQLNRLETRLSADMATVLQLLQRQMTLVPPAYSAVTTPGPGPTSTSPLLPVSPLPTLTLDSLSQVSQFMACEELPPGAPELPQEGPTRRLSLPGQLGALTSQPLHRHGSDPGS

T2 sequence (Q92633 whole entry): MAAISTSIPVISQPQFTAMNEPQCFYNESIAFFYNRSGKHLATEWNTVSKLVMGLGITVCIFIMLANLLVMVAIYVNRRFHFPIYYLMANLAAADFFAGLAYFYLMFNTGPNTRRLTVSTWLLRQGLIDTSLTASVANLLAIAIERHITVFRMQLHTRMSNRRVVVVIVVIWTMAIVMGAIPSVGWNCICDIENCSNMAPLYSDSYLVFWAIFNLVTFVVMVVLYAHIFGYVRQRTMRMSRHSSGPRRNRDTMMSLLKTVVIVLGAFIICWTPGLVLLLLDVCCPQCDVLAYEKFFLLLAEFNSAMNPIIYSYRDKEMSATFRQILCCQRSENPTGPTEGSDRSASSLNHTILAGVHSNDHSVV
Cytochrome P450 3A4, sequence (P08684 whole entry): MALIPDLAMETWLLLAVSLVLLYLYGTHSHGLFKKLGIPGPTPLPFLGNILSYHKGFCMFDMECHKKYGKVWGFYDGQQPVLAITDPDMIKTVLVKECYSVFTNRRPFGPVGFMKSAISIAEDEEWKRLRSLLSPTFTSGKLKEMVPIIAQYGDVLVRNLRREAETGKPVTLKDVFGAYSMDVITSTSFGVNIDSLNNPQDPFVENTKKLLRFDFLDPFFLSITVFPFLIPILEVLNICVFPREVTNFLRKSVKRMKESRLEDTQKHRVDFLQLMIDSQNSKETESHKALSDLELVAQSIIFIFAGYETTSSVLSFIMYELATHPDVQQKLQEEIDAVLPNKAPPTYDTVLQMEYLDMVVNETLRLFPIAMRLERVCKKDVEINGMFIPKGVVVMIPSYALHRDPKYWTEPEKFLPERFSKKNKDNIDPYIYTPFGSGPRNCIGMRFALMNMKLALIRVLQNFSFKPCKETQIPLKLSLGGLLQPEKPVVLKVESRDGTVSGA
Lysophosphatidic acid receptor 5, sequence (Q9H1C0 whole entry): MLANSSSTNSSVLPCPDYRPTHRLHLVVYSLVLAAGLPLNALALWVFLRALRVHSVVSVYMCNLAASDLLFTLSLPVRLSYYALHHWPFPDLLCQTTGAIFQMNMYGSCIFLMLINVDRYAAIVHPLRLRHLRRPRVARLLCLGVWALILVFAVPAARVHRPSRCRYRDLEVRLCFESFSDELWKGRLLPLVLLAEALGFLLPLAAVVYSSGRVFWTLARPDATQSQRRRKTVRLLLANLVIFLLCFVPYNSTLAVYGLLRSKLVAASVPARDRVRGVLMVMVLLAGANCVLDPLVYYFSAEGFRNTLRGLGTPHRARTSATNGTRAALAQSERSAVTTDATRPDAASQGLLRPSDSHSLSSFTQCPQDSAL

pEC50 [1]: < 5.00 | Drug metabolism [2]: metabolite_detected | fraction unbound at 24 h, 2 µM [3]: 0.066 | fraction unbound at 5 h, 2 µM [4]: 0.133 | half-life [5]: 2.9 h | CLint scaled at 1 µM [6]: 0.45 L/h/kg | inhibition (INH) (Cytochrome P450 2B6): Not_active | pEC50 [7]: 8.10 | bioavailability [8]: 49% | pEC50 [9]: 7.93 | inhibition (INH) (Cytochrome P450 3A4): Time-dependent-effect
SMILES: C[C@@H](OC(=O)Nc1c(-c2ccc(NC(=O)c3cnc(C(F)(F)F)nc3)cn2)nnn1C)c1cc(F)cnc1F
pIC50 [10]: < 4.52
